Reference: ChEMBL document CHEMBL1201862, “PubChem BioAssay data set” (2004)
The source made the active and inactive calls. Cut-off read from the data, not from the text of the source, for most assays here: actives have a measured EC50 and inactives only a lower limit.

Legend:
[1] = NIH3T3 cell viability loss – ATP luminescence, mouse fibroblasts, counter-screen, dose response (AID 2010); format: functional, cell-based;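 note: cells exposed to compound for about 90 hours before reading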
[2] = Trypanosoma cruzi growth suppression in host cells – NIH3T3 host cells, beta-gal luminescence, confirmation (AID 2044); format: functional, cell-based;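 note: intracellular parasites grown in NIH/3T3 mouse fibroblasts as host cells; luminescent beta-galactosidase reporter signal from transgenic T. cruzi replicating inside host cells; inhibitors lower the luminescence signal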
[3] = test system: Streptococcus sp. 'group A'; assay: Streptococcus pyogenes SK(-)GAS viability under kanamycin – luminescence, BacTiterGlo, confirmation, counter-screen for streptokinase expression inhibitor project, dose response (AID 1900); format: functional, organism-based
[4] = cells; format: functional, cell-based
[5] = target: T1, Histone-lysine N-methyltransferase NSD2 (Homo sapiens, UniProt O96028); format: biochemical
T1 sequence (O96028 whole entry): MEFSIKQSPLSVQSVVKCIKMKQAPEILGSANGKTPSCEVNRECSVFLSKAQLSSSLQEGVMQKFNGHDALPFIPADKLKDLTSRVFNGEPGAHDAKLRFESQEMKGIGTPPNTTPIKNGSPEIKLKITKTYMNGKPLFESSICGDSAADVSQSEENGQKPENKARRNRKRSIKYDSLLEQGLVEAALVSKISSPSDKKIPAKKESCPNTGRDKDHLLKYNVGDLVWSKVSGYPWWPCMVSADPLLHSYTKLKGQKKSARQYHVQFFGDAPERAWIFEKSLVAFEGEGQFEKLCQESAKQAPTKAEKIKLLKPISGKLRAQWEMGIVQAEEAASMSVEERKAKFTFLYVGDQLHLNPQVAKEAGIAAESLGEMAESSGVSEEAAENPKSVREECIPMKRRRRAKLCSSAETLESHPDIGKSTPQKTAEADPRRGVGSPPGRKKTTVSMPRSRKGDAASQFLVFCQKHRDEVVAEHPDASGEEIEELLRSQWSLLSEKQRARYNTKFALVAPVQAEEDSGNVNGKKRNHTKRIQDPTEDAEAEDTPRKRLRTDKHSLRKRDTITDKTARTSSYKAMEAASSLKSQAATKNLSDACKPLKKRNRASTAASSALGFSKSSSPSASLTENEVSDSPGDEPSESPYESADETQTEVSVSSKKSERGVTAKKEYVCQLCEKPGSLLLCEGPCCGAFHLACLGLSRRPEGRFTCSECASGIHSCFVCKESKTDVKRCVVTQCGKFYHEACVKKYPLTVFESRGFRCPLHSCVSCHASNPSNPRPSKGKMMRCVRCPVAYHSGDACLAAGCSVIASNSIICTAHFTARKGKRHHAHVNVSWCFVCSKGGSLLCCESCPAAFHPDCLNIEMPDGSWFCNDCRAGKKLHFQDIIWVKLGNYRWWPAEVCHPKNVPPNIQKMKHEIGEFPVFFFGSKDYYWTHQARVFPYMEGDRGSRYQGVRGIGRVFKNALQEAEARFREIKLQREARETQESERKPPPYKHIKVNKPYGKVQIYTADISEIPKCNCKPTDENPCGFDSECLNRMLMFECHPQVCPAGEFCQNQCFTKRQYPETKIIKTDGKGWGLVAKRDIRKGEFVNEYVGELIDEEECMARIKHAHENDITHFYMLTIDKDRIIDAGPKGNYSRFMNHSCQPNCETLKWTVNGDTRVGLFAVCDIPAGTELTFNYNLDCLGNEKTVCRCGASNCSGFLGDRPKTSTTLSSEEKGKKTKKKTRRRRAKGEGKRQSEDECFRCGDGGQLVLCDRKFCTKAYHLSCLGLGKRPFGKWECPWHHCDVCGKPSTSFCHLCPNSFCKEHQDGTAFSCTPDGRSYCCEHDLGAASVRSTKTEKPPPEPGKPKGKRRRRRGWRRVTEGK

SMILES	EC50 [1]	EC50 [2]	EC50 [3]	EC50 [4]	AC50 [5]
Cc1ccc(-n2sc3ccccc3c2=O)cc1	9710 nM (active)	361 nM (active)	1020 nM (active)	–	–
CCC(=O)NC(c1ccc(C)cc1)c1ccc2cccnc2c1O (configuration not stated)	687 nM (active)	481 nM (active)	–	4300 nM (active)	–
N/C(=N\N=C/c1ccc(-c2ccc(O)c(C(=O)O)c2)o1)N[N+](=O)[O-]	–	–	–	–	7570 nM (active)
CC(=O)N(/N=C1\Sc2ccccc2C1=O)c1ccccc1C	–	–	–	–	548 nM (active)
CCCC(=O)NC(c1ccc(Cl)cc1)c1ccc2cccnc2c1O (configuration not stated)	425 nM (active)	226 nM (active)	2170 nM (active)	5770 nM (active)	–
